Data on 6 molecules can be found in patent EP2326172B1, “ANTIFUNGAL AGENTS” (Scynexis, Inc., priority 2008, dated 2010).

The target of this experiment is T1, glucan synthase (GS) (Candida albicans, UniProt O13428).
T1 construct: Extraction of GS activity from membranes was performed at a protein concentration of 5 mg/mL in extraction buffer; endogenous in cells; host or cells: Candida albicans MY1055 (membrane fraction, detergent extract, product entrapment)
Put plainly: Glucan synthase inhibition (polymerization assay, 96-well, 3H-UDPG incorporation). Particulars: glucan synthase prepared from Candida albicans MY1055; 60 min incubation at 22°C; read-out: Candida Albicans GS IC50 (ng/mL) (converted). The class given is biochemical. As for the experimental part: The in vitro evaluation of glucan synthase inhibitory activity of compounds was measured in a polymerization assay in 96-well format. Each well contained 100 µL of ^3H-UDPG at 0.5 mM (6000 to 8000 dpm/nmol), 50 mM HEPES pH 7.5 (Sigma), 10% w/v glycerol (Sigma), 1.5 mg/mL bovine serum albumin (Sigma A 9647. Lot 44H0190), 25 mM KF (Fisher), 1 mM EDTA (Gibco ULTRAPURE), 25 µM GTP-γ-S, enzyme sufficient to give 3 to 6 nmoles incorporation during the 60 min incubation at 22°C, and test compound added from wells in 3-fold serial dilutions in 100% DMSO (1 µL/well). The reaction was stopped by the addition of 100 µL of 20% trichloroacetic acid. Plates were chilled for a minimum of 10 min, and precipitated glucan collected by filtration on GF/C plates (Packard UNIFILTER®-96), washed with 5 cycles of water (about 1 mL/well each cycle) using a Packard FILTERMATE HARVESTER. 40 µL/well scintillation fluid (Packard ULTIMA GOLD TM-XR) was added and the sealed plates counted in a WALLAC BETA counter in top-counting mode at an efficiency of approximately 40%.
Stock solutions were stored at 10 mg/mL in DMSO at -20°C. For each new enzyme preparation, the initial titration performed started at 1 mg/mL, which was prepared by making a 10-fold dilution in DMSO (5 µL to 50 µL). 40 µL of this stock was placed in column 12 of a round-bottomed 96-well microtiter plate. 40 µL DMSO was added to columns 1 to 11 in the same row and ten 3-fold serial dilutions performed, by transferring 20 µL from column 12 to column 11 etc., with 4 mixings before each transfer. No test compound was transferred to from column 2 to column 1. Duplicate aliquots of 1 µL of all 12 dilutions were then transferred to the side walls of a 96-well Bioblock 1.1 mL plate (Fisher brand) to create two rows.
Graphs of the primary data were created in PRISM software (the average of two determinations) using PRISM's curve fitting program (sigmoidal dose response non-linear regression). The amount of compound required to inhibit glucan synthase activity by 50% in this assay (IC50 - ng/mL) was calculated.
Routine analysis was performed with glucan synthase (GS) prepared from Candida albicans MY1055 by the following procedure: MY1055 was grown in 10 liters YPD medium (10 g yeast extract, 20 g tryptone, 20 g glucose per liter) with vigorous shaking at 30°C, to early stationary phase. Cells were harvested by centrifugation, the pellet was washed and frozen at -70°C until breakage. Thawed pellets were shaken with an equal volume of breakage buffer (50 mM HEPES pH 7.4, 10% glycerol, 1 mM EDTA, 1 mM PMSF, 1mM DTT) and 4 times their weight of 0.5 mm acid washed glass beads for 2 hours at 4°C. Extent of breakage was assessed visually at 40x magnification. After low speed centrifugation to remove cell debris, the supernatant was centrifuged at 100,000 x g for 60 min. to separate membranes plus ribosomes from cytoplasmic components. Membranes were further washed two additional times with breakage buffer using the same centrifugation conditions and finally suspended in breakage buffer at 25 to 30 mg/mL protein (Biorad) for storage at -70°C. Extraction of GS activity from membranes was performed at a protein concentration of 5 mg/mL in extraction buffer (50mM NaPO4 pH 7.5, 0.1 M KCl, 0.1M Na citrate, 20% glycerol, 5 µM GTP-γ-S, 1mM DTT, 1 mM PMSF, 3 µg/mL pepstatin) plus 0.25% W1 by gentle mixing at 4°C for 60 min, followed by centrifugation at 100,000 x g for 60 min. After centrifugation, clear supernatant was removed from a pellet consisting of a hard layer usually with small amounts of gelatinous unextracted membranes above it.
Trapping was initiated immediately by 5-fold dilution in trapping buffer (50 mM HEPES pH 7.5, 10 mM KF, 1 mM EDTA, 2 mg/mL BSA) plus 2.5 mM UDPG and 10µM GTP-γ-S. After incubation at 25°C for 60 to 90 minutes, glucan was harvested by low speed centrifugation (3,000 x g, 10 min). […]

T1 sequence (O13428 1-1897): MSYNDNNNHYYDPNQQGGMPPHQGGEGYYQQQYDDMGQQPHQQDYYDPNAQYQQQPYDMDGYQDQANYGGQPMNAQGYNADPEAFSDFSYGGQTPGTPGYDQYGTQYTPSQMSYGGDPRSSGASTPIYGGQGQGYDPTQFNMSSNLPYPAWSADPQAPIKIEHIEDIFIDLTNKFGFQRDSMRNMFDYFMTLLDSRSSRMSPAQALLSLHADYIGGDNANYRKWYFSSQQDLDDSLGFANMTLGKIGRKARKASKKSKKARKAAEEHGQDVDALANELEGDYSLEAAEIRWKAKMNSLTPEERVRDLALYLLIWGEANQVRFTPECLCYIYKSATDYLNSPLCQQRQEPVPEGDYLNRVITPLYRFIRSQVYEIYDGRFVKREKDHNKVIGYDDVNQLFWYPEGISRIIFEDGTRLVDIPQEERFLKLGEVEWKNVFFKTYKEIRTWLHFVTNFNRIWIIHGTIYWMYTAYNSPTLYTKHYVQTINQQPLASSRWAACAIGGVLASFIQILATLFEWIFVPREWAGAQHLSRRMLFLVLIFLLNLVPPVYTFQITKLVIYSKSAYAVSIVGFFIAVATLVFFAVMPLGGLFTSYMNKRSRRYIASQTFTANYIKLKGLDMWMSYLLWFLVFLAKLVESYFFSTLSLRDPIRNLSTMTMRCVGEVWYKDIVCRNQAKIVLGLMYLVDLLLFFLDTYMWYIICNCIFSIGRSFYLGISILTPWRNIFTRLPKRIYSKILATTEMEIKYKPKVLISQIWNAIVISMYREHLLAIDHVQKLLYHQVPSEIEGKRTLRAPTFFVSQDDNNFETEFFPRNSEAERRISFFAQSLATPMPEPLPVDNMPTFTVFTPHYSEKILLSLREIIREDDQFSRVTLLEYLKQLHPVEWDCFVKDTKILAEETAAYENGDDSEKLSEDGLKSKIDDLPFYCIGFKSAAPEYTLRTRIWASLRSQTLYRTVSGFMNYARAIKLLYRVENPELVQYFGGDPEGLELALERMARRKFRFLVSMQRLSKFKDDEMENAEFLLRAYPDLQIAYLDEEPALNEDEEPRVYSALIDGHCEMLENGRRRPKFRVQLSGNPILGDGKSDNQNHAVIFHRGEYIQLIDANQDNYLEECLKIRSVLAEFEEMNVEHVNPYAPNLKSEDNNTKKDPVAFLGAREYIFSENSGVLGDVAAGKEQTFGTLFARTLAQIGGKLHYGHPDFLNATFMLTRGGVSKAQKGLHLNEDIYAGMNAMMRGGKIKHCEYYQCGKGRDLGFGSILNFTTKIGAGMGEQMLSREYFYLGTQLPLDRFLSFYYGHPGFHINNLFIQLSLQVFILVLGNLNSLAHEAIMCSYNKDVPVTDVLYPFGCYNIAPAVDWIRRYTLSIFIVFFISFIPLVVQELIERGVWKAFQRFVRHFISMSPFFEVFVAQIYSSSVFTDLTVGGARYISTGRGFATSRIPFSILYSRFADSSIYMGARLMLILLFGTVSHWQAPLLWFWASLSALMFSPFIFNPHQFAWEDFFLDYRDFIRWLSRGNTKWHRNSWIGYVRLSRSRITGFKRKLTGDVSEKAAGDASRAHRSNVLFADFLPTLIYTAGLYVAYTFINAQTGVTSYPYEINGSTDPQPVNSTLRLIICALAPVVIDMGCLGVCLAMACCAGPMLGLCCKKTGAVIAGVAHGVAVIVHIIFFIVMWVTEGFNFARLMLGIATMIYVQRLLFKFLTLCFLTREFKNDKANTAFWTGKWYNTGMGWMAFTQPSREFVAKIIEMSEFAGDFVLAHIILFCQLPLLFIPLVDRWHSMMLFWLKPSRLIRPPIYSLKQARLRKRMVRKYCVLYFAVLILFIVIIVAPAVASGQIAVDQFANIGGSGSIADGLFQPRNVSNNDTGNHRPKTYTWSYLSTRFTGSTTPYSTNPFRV
T1 sequence (O42825 1-195 partner limits assumed): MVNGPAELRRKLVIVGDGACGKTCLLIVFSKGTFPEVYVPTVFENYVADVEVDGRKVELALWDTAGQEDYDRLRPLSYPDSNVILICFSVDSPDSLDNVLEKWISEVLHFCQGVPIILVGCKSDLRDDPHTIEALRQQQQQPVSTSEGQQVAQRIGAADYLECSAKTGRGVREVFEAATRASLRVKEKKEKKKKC

As for `CC(C)[C@@H](C)[C@@]1(C)CC[C@]2(C)[C@H]3CC[C@@H]4[C@@]5(COC[C@@]4(C)[C@@H](OC[C@](C)(N)C(C)C)[C@H](n4ncnc4-c4cccnc4)C5)C3=CC[C@@]2(C)[C@@H]1C(=O)O` [Example 182, (1S,4aR,6aS,7R,8R,10aR,10bR,12aR,14R,15R)-15-[[(2R)-2-amino-2,3-dimethylbutyl]oxy]-8-[(1R)-1,2-dimethylpropyl]-14-[5-(3-pyridinyl)-1H-1,2,4-triazol-1-yl]-1,6,6a,7,8,9,10,10a,10b,11,12,12a-dodecahydro-1,6a,8,10a-tetramethyl-4H-1,4a-propano-2H-phenanthro[1,2-c]pyran-7-carboxylic acid], the IC50 is 5.59 nM.

`CC(C)[C@@H](C)[C@@]1(C)CC[C@]2(C)[C@H]3CC[C@@H]4[C@@]5(COC[C@@]4(C)[C@@H](OC[C@](C)(N)C(C)(C)C)[C@H](n4ncnc4-c4ccnnc4)C5)C3=CC[C@@]2(C)[C@@H]1C(=O)O` [Example 202, (1S,4aR,6aS,7R,8R,10aR,10bR,12aR,14R,15R)-15-[[(2R)-2-amino-2,3,3-trimethylbutyl]oxy]-8-[(1R)-1,2-dimethylpropyl]-14-[5-(4-pyridazinyl)-1H-1,2,4-triazol-1-yl]-1,6,6a,7,8,9,10,10a,10b,11,12,12a-dodecahydro-1,6a,8,10a-tetramethyl-4H-1,4a-propano-2H-phenanthro[1,2-c]pyran-7-carboxylic acid]: the IC50 was 0.274 nM. `CNC1(CO[C@H]2[C@H](n3ncnc3C(N)=O)C[C@@]34COC[C@]2(C)[C@@H]3CC[C@H]2C4=CC[C@@]3(C)[C@H](C(=O)O)[C@@](C)([C@H](C)C(C)C)CC[C@]23C)CCOCC1` [Example 46, (1S,4aR,6aS,7R,8R,10aR,10bR,12aR,14R,15R)-14-[5-(aminocarbonyl)-1H-1,2,4-triazol-1-yl]-8-[(1R)-1,2-dimethylpropyl]-15-[[tetrahydro-4-(methylamino)-2H-pyran-4-yl]methoxy]-1,6,6a,7,8,9,10,10a,10b,11,12,12a-dodecahydro-1,6a,8,10a-tetramethyl-4H-1,4a-propano-2H-phenanthro[1,2-c]pyran-7-carboxylic acid]: the IC50 was 8.45 nM. As for `CC(C)[C@@H](C)[C@@]1(C)CC[C@]2(C)[C@H]3CC[C@@H]4[C@@]5(COC[C@@]4(C)[C@@H](OCC4(N)CCOCC4)[C@H](n4ncnc4-c4ccncn4)C5)C3=CC[C@@]2(C)[C@@H]1C(=O)O` [Example 256, (1S,4aR,6aS,7R,8R,10aR,10bR,12aR,14R,15R)-15-[(4-aminotetrahydro-2H-pyran-4-yl)methoxy]-8-[(1R)-1,2-dimethylpropyl]-14-[5-(4-pyrimidinyl)-1H-1,2,4-triazol-1-yl]-1,6,6a,7,8,9,10,10a,10b,11,12,12a-dodecahydro-1,6a,8,10a-tetramethyl-4H-1,4a-propano-2H-phenanthro[1,2-c]pyran-7-carboxylic acid], the IC50 is 6.84 nM. As for `CCCN[C@@](C)(CO[C@H]1[C@H](n2ncnc2C(=O)NC)C[C@@]23COC[C@]1(C)[C@@H]2CC[C@H]1C3=CC[C@@]2(C)[C@H](C(=O)O)[C@@](C)([C@H](C)C(C)C)CC[C@]12C)C(C)C` [Example 53, (1S,4aR,6aS,7R,8R,10aR,10bR,12aR,14R,15R)-8-[(1R)-1,2-dimethylpropyl]-15-[[(2R)-2,3-dimethyl-2-(propylamino)butyl]oxy]-14-[5-[(methylamino)carbonyl]-1H-1,2,4-triazol-1-yl]-1,6,6a,7,8,9,10,10a,10b,11,12,12a-dodecahydro-1,6a,8,10a-tetramethyl-4H-1,4a-propano-2H-phenanthro[1,2-c]pyran-7-carboxylic acid], the figure is 42 nM; as for `CC(C)[C@@H](C)[C@@]1(C)CC[C@]2(C)[C@H]3CC[C@@H]4[C@@]5(COC[C@@]4(C)[C@@H](OC[C@](C)(N)C(C)(C)C)[C@H](n4ncnc4-c4ccncc4F)C5)C3=CC[C@@]2(C)[C@@H]1C(=O)O` [Example 208, (1S,4aR,6aS,7R,8R,10aR,10bR,12aR,14R,15R)-15-[[(2R)-2-amino-2,3,3-trimethylbutyl]oxy]-8-[(1R)-1,2-dimethylpropyl]-14-[5-(3-fluoro-4-pyridinyl)-1H-1,2,4-triazol-1-yl]-1,6,6a,7,8,9,10,10a,10b,11,12,12a-dodecahydro-1,6a,8,10a-tetramethyl-4H-1,4a-propano-2H-phenanthro[1,2-c]pyran-7-carboxylic acid], 0.936 nM.
